Data published in ChEMBL document CHEMBL1201862, “PubChem BioAssay data set” (2004).
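96-well plates; 48 h exposure; 5 concentrations. Endpoints by linear interpolation between flanking doses. Not reached: highest tested concentration assigned. Here, GI50 denotes the concentration required for 50% inhibition of growth.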 The source made the active and inactive calls. Rule as the data show it: active = GI50 up to about 1.1 µM and inactive = higher.

How the values were obtained:
Test in all cases: DTP human tumour cell line panel, 48 h
[1] = tested on: SK-MEL-5
[2] = tested on: OVCAR-5
[3] = tested on: K562
[4] = tested on: MCF7
[5] = tested on: NCI-H522
[6] = tested on: SN12C
[7] = tested on: Hs-578T
[8] = tested on: MOLT-4
[9] = tested on: M14
[10] = tested on: SW-620
[11] = tested on: ACHN
[12] = tested on: SK-OV-3
[13] = tested on: IGROV-1
[14] = tested on: A498
[15] = tested on: MDA-N
[16] = tested on: 786-0
[17] = tested on: SNB-75
[18] = tested on: DU-145
[19] = tested on: NCI-H23
[20] = tested on: UACC-62

Measured: GI50

CCOC(=O)C(=CNc1ccc(S(N)(=O)=O)cc1)C(=O)OCC
inactive: [1] > 100 µM | [2] > 100 µM | [3] > 100 µM | [4] > 100 µM | [5] > 100 µM | [6] > 100 µM | [7] > 100 µM | [8] > 100 µM | [9] > 100 µM | [10] > 100 µM | [11] > 100 µM | [12] > 100 µM | [13] > 100 µM | [14] > 100 µM | [15] > 100 µM | [16] > 100 µM | [17] > 100 µM | [18] > 100 µM | [19] > 100 µM

Oc1ccc(Cn2c(-c3ccc(O)c(O)c3)nc3ccccc32)cc1O
inactive: [1] 14.7 µM | [2] 38.1 µM | [3] 10.8 µM | [4] 30.1 µM | [5] 4.67 µM | [6] 10.1 µM | [7] 5.79 µM | [8] 2.52 µM | [9] 13.9 µM | [10] 13.4 µM | [11] 10.9 µM | [12] 18.6 µM | [13] 11.9 µM | [14] 90.2 µM | [15] 15 µM | [16] 9.44 µM | [17] 12.1 µM | [18] 24.5 µM | [19] 23.3 µM

Cc1cc(C)n(-c2nc(-n3nc(C)cc3C)nc(-n3nc(C)cc3C)n2)n1
inactive: [20] > 100 µM | [1] > 100 µM | [2] > 100 µM | [3] 59.2 µM | [4] > 100 µM | [5] > 100 µM | [6] > 100 µM | [7] 50.5 µM | [8] > 100 µM | [9] > 100 µM | [10] > 100 µM | [11] 38.6 µM | [12] > 100 µM | [13] > 100 µM | [14] > 100 µM | [15] > 100 µM | [16] > 100 µM | [18] > 100 µM | [19] 88.7 µM

CCN(CC)C1=Nc2ccccc2-n2ccnc2C1
inactive: [20] > 100 µM | [1] > 100 µM | [2] > 100 µM | [3] > 100 µM | [4] > 100 µM | [5] > 100 µM | [6] > 100 µM | [7] > 100 µM | [8] > 100 µM | [9] > 100 µM | [10] > 100 µM | [11] > 100 µM | [13] > 100 µM | [14] > 100 µM | [15] > 100 µM | [16] > 100 µM | [17] 70.5 µM | [18] > 100 µM | [19] > 100 µM

CC(C)CCNC(=O)C(CC(C)C)NC(=O)[C@H]1O[C@@H]1C(=O)O (some centres undefined)
inactive: [20] > 100 µM | [1] > 100 µM | [2] > 100 µM | [3] > 100 µM | [4] > 100 µM | [5] > 100 µM | [6] > 100 µM | [7] > 100 µM | [8] > 100 µM | [9] > 100 µM | [10] > 100 µM | [12] > 100 µM | [13] > 100 µM | [14] > 100 µM | [15] > 100 µM | [16] > 100 µM | [17] > 100 µM | [18] > 100 µM | [19] > 100 µM

Cc1cc(C)n(C2=NS(=O)(=O)c3ccccc3N2C)n1
inactive: [20] > 100 µM | [1] > 100 µM | [2] > 100 µM | [3] > 100 µM | [4] > 100 µM | [5] > 100 µM | [6] > 100 µM | [7] > 100 µM | [8] > 100 µM | [9] > 100 µM | [10] > 100 µM | [11] > 100 µM | [12] > 100 µM | [13] > 100 µM | [14] > 100 µM | [15] > 100 µM | [16] > 100 µM | [18] > 100 µM | [19] > 100 µM
